Values quoted from earlier work as cited in paper PMC9501525, “Conjugation of a Cationic Cell-Penetrating Peptide with a Novel Kunitzin-like Trypsin Inhibitor: New Insights for Enhancement of Peptide Bioactivities” (Pharmaceutics, 2022).

Columns and labels:
[1] = system: MRSA (NCTC 12493); settings: ref [26]; cited from earlier work
Source text: (§1) Table 3 MIC/MBC of kunitzin-OV2 and its relatives against different microorganisms. | column: TAT ^a

[2] = system: S. aureus (ATCC 6538); settings: ref [26]; cited from earlier work
Source text: as §1

[3] = system: C. albicans (ATCC 10231); settings: ref [26]; cited from earlier work
Source text: as §1

[4] = system: E. coli (ATCC 8739); settings: ref [26]; cited from earlier work
Source text: as §1

[5] = system: P. aeruginosa (ATCC 9027); settings: ref [26]; cited from earlier work
Source text: as §1

[6] = system: E. coli; set-up: method as in PMID 28943153; settings: ref [41]; cited from earlier work

RKKRRQRRR [TAT, classical short cationic cell-penetrating peptide TAT48–56]
>128 µM: MBC [1] | MIC [1] | MBC [2] | MIC [2] | MBC [3] | MIC [3] | MBC [4] | MIC [4] | MBC [5] | MIC [5]

melittin: typical AMP, literature comparator, ref
64 to 128 µg/mL: MBC [6]
40 to 42.5 µg/mL: MIC [6]
